Biological target: Concanavalin A (Con A) (Canavalia ensiformis, UniProt P02866)
Assay type: biochemical, jack bean (Canavalia ensiformis)
Details: 1000 equiv. added after 180 min

COC1OC(CO)C(O)C(O)C1O [methyl-α-D-mannose]
effect of competitive inhibitor on Con A-complex aggregates: immediate deaggregation

Reference: paper PMC9890585 (Chemical Science, 2022)
